From paper PMC11802874, “The hypolipidemic effect of MI-883, the combined CAR agonist/ PXR antagonist, in diet-induced hypercholesterolemia model” (Nature Communications, 2025)
Where “and” joins values, the source holds several entries; their conditions need not be identical. Equal values may be shown once.

Assays:
LXRα = LXRα (Homo sapiens, UniProt Q13133); experiment: Luciferase reporter gene assay LXRα, HepG2
Excerpt: Gal4-LBD constructs of tested nuclear receptors have been used together with pGL4.31[luc2P/GAL4UAS/Hygro] luciferase reporter construct and pRL-TK Renilla expression vector (both from Promega, Hercules, USA) in HepG2 cells transfected with Lipofectamine 2000 or 3000 reagents. For GRα and FXR receptors, full-length expression vectors have been used with pGRE-luc or pFXRE-luc luciferase constructs. For the aryl hydrocarbon receptor (AhR), p1A1-luc construct was used with only pRL-TK vector for transfection normalization. A dual reporter assay (Promega, Hercules, USA) was used to analyze both firefly and Renilla luciferase activities.
Gal4-LBD constructs of tested nuclear receptors have been used together with pGL5-luc luciferase reporter construct and pRL-TK Renilla expression vector in HepG2 cells transfected with Lipofectamine 2000 or 3000 reagents. For GRα and FXR receptors, full-length expression vectors have been used with pGRE-luc or pFXRE-luc luciferase constructs. For the aryl hydrocarbon receptor (AhR), p1A1-luc construct was used with only pRL-TK vector for transfection normalization. […] Bars represent means±S.D. (n=3).

[1] = system: humanized PXR-CAR-CYP3A4/3A7 mice; experiment: Bile acid analysis in plasma, liver and stool (HFD study); assay type: in vivo, mouse
Experimental: Materials and reagents and sample preparation have been described in our last paper[63] (see Supplementary, Chapter 12). Concentrations of bile acids in plasma, bile, and feces were determined using the UHPLC-MS method. The bile acids separation was conducted on the ACQUITY UPLC I-Class System (Waters, Milford, MA, USA) using a Triart C18 column (50 mm × 2.1 mm ID, 1.9 µm) from YMC, Japan. The column was maintained at 45 °C and was safeguarded by a disposable CrudCatcher in-line filter (Phenomenex, Torrance, CA, USA). The mobile phase flowed at a rate of 0.35 mL/min and consisted of solvent A (0.5 mmol/L ammonium acetate, 0.001% v/v acetic acid in water) and solvent B (0.5 mmol/L ammonium acetate, 0.001% v/v acetic acid in a 3:1 v/v mixture of methanol and acetonitrile). The gradient program followed this sequence. […] This was succeeded by an isocratic washout with 95% (v/v) solvent B from 9.0 to 10.5 min, followed by equilibration with 40% (v/v) solvent B from 10.5 to 12 min. 2 μL of sample were injected into column. Column effluent was monitored with Xevo TQ-XS triple quadrupole detector operated in positive electrospray mode. Further details can be found in the publication by Uher et al.[72].
The processing of the UHPLC-MS data was performed using TargetLynx software (Waters, Milford, MA, USA). The ratio of an analyte’s peak area and the internal standard was evaluated against a calibration curve, and the concentration for each bile acid was calculated. For further data analysis, the concentrations of individual BAs were summed to calculate the concentration of conjugated, unconjugated, 12-OH, non-12-OH, and total bile acids.
To cover a wide concentration range of bile acids, two sets of plasma aliquots were prepared. The first set, with a volume of 10 μL, was diluted tenfold with MilliQ water. The second set, with a volume of 100 μL, was used without dilution, and the subsequent procedure remained identical for both sets. […]

[2] = system: humanized PXR-CAR-CYP3A4/3A7 mice, liver; experiment: NGS RNA-Seq of liver samples (HFD study); assay type: in vivo, mouse
Experimental: Total RNA from liver samples has been isolated using TRIZOL®. Total RNA was purified using Agencourt RNAClean XP Beads (Beckman Coulter, Inc.) and then the diluted RNA was quantified using Qubit 2.0 Fluorometer with Qubit RNA BR Assay Kit (Invitrogen) for precise measurement. The integrity of purified RNA was evaluated based on RIN (>7) acquired using the 2100 Bioanalyzer System with Total RNA Nano Chip (Agilent Technologies) according to the manufacturer’s protocol.
The input amount of total RNA used in the libraries was 520 ng. Libraries were constructed with NEBNext Ultra II Directional RNA Library Prep Kit for Illumina (New England Biolabs Inc., Ipswich, MA, USA). […] The samples were multiplexed using suitable molecular barcodes by using the NEBNext Multiplex Oligos from Illumina. Adaptor enrichment was performed by using eight cycles of PCR.
The concentration of molecular libraries was measured using Qubit 2.0 Fluorometer with Qubit dsDNA HS Assay Kit (Invitrogen) and subsequently, the fragment sizes were analyzed by Bioanalyzer System 2100 using High Sensitivity DNA Chip (Agilent Technologies), with expected fragments between 200 and 600 bp in size. The molarity of individual libraries was calculated using determined concentrations and modal lengths. Each sample of the library was normalized to 14 nM concentration, and the normalized libraries were pooled and sequenced on an Illumina NovaSeq6000 platform (Illumina) with paired-end sequencing of libraries with a read length of 150 b.
The quality of raw sequencing data was assessed using MultiQC tool. Fastq files were aligned to the mouse reference genome (mm10) using STAR aligner and featureCounts was used to make count matrices. Data was filtered to only include genes with a minimum 60 counts in all samples. Data were analyzed using the DESeq2 package of RStudio 2023.06.1 and R software v4.3.1 (https://www.R-project.org/). […] P values were adjusted for multiple testing to reduce false discovery rate. For further analysis RNAs with more than twofold expression were selected (log2FC > 1 or < –1). Differential expression was analyzed using DESeq2 package (Fig. 4a). Volcano plot was visualized using R package ggplot2 and ggrepel. Gene ontology (GO) and pathway analyses were done with the R package clusterProfiler[64] using function enrichGO. P value < 0.001 was defined as the significance threshold.
A heatmap was made using z-score normalized reads (z = [x-mean]/standard deviation) and visualized using the R package pheatmap. Hierarchical clustering was performed with the Ward method as a part of the pheatmap R package. The data presented in this publication have been deposited in NCBI’s Gene Expression Omnibus database with GEO Series accession number GSE262786.https://www.ncbi.nlm.nih.gov/geo/query/acc.cgi?acc=GSE262786.

Chain of LXRα (Q13133 209-447 limits assumed): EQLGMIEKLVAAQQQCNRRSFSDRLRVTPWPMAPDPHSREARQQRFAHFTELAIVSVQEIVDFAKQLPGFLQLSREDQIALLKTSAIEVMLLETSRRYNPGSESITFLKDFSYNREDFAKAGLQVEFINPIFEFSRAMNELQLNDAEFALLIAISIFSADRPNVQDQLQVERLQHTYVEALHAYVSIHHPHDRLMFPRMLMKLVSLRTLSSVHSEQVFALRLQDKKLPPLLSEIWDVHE

## NC(=O)c1cc(Cn2cc(-c3c(-c4ccc(Cl)cc4)nc4cc(F)ccn34)nn2)ccc1Cl [MI-883, 2-chloro-5-((4-(2-(4-chlorophenyl)-7-fluoroimidazo[1,2-a]pyridin-3-yl)-1H-1,2,3-triazol-1-yl)methyl)benzamide]
LXRα
  NRs assays: GAL4-LXR+RXR (relative to ctrl, replicates): 0.88 and 1.89 and 2.24
[1]
  total BA content in the stool after 24 h: significant increase
  total bile acid concentration in plasma and livers: not affected
  βMCA and CDCA in the stool: significant (P < 0.05) increase
[2]; HFD study
  liver Apoc1, Apoc4, Apoa5, Apoa1, RNA-Seq: marginally but significantly downregulated
  liver Scarb1, Angptl3, Lipc, RNA-Seq: marginally, but significantly, downregulated
  liver genes of fatty acid metabolism (Scd1, Fabp2, Srebf1), RNA-Seq: significantly downregulated
  liver transporters Abcb1, Bsep, Abcg5/8: not been significantly affected
[2]; HFD study (Fig. 6e)
  liver Hmgcr mRNA upregulation: 1.31 fold and 1.3 fold
[2]; HFD study, n=5, FDR_DESeq 0.0023
  liver Scd1 mRNA, log2FC_DESeq: -0.4854 log2FC
[2]; HFD study, 0.008 FDR_DESeq
  liver Cyp2c70, log2FC: –0.58 log2FC
